Test results published in patent US10155948B2, “Pharmaceutical composition for preventing or treating diabetic complications and screening method for preventive or therapeutic agent for diabetic complications” (KANGWON NATIONAL UNIVERSITY UNIVERSITY-INDUSTRY COOPERATION …, priority 2016, dated 2018).

Target: T1, TGase2 (Mus musculus, UniProt P21981)
T1 construct: from tissue; host or cells: retina of streptozotocin-diabetic C57BL/6 mice
T1 sequence (P21981 1-686): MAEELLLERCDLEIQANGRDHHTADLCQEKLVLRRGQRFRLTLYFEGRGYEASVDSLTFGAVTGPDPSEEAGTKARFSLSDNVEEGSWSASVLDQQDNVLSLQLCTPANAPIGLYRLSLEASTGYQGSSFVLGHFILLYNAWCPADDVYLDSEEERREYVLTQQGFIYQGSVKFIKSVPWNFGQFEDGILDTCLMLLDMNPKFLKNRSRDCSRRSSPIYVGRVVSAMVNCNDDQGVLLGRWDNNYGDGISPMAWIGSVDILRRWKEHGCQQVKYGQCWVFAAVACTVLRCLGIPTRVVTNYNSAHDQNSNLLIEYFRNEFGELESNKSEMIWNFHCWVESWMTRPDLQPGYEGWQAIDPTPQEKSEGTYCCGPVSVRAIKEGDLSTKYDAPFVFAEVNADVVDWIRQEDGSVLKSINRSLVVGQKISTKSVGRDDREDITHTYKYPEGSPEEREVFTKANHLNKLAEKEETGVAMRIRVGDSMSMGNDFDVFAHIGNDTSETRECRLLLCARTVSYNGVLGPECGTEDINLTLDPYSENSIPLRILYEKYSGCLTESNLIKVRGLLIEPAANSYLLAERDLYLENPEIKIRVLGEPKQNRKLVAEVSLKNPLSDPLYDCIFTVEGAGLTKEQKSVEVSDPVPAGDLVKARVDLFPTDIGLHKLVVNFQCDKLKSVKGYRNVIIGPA
Experiment: In-vivo TGase activity in retina of streptozotocin-diabetic mice
Conditions: for hyperglycemia-induced TGase2 activation in diabetic retina (in-vivo TGase activity): diabetic mice, intravitreal 2 μl: 50 mM cystamine, 20 mM MDC, 1 μM C-peptide, 2 μM Trolox, 500 mM NAC, after 24 hrs, n=8; for increase of TGase activity in retinas of diabetic mice: intravitreal injection, 0.5 mM dopamine, 500 mM cysteamine
Method: Two weeks after streptozotocin injection, diabetic mice were intravitreally injected with 2 μl of TGase inhibitors (50 mM cystamine or 20 mM MDC), 1 μM C-peptide (American Peptide Company, Sunnyvale, Calif.), ROS scavengers (2 μM Trolox or 500 mM NAC), or 65 μM mouse TG2-specific siRNA (Dharmacon, Lafayette, Colo.) into one eye and an equal volume of PBS or mouse control siRNA (Dharmacon, Lafayette, Colo.) into the contralateral eye. Non-diabetic mice were also intravitreally injected with 2 μl of PBS or mouse control siRNA into the eyes. After 24 hrs for inhibitors or C-peptide or 48 hrs for mouse TGase2 siRNA, mice were subjected to measurement of in-vivo TGase activity and vascular leakage from the retina.
In vivo Tgase transamidating activity was determined in mouse retina using confocal microscopy (FIG. 5A). 24 hrs after intravitreal injection of TGase2 inhibitors and C-peptide or 48 h after the injection of mouse TGase2-specific siRNA, mice were deeply anaesthetized using 2.5% avertin and 48 μl of 100 mM BAPA was injected into the left ventricle. BAPA was allowed to circulate for 10 min and mice were sacrificed by cervical dislocation. Eyes were then enucleated and immediately fixed with 4% paraformaldehyde for 45 min. Retinas were dissected in the Maltese cross-configuration and permeabilized with 0.2% Triton X-100 in PBS for 30 min at RT. After incubation with the blocking solution for 30 min, retinas were treated with FITC-conjugated streptavidin (1:200, v/v) in the blocking solution for 1 hr at RT. The superficial vessels of stained retinas (n=8 per group) were observed using confocal microscopy and fluorescence intensities were analyzed using Fluoview software (FV-300). In-vivo TGase activities were quantitatively determined using fluorescence intensities in the retinas of normal and diabetic mice.
Six-week-old male C57BL/6 mice were obtained from KOATECH (Pyeongtaek, Korea). TGase2^−/− mice (C57BL/6) were prepared by disrupting exons 5 and 6 of TGase2 by homologous recombination, as previously described. Diabetic mice were generated by a single intraperitoneal injection of streptozotocin (150 mg/kg body weight, Sigma) freshly prepared in 100 mM citrate buffer (pH 4.5) as previously described. Mice with non-fasting blood glucose levels greater than 19 mM, polyuria and glucosuria were considered diabetic. Experiments were performed in strict accordance with the guidelines of the Institutional Animal Care and Use Ethics Committee of Kangwon National University.
To validate the in-vitro findings, the present inventors further investigated the role of TGase2 in hyperglycemia-induced vascular leakage in the retina of diabetic mice. For this study, the present inventors designed an in-vivo TGase activity assay using confocal microscopy in mouse retina (FIG. 5A). In this assay, BAPA, which is a TGase2 pseudo substrate, was systemically delivered into the blood circulatory system by injection into the left ventricles of mice, and biotinylated proteins in the retinas were probed with FITC-conjugated streptavidin.
(A) A schematic diagram for determining TGase2 activity in mouse retina. (B,C) Streptozotocin-induced diabetic mice were intravitreally injected with 2 μl cystamine (diabetic+Cys), MDC (diabetic+MDC), C-peptide (diabetic+C-pep), Trolox (diabetic+Trolox) or NAC (diabetic+NAC) into one eye and an equal volume of PBS into the contralateral eye (diabetic). Non-diabetic mice were also intravitreally injected with 2 μl PBS into both eyes (normal). TGase2 activities in retinas were visualized by confocal microscopy and quantitatively determined as described in Research Design and Methods (n=8 per group). (B) Representative TGase activity images in the retinas. […] Scale bar, […]. (C) In-vivo TGase activities were quantified by measuring the fluorescence intensity in retinas (***p<0.001). […]

| Compound | hyperglycemia-induced TGase2 activation in diabetic retina (in-vivo TGase activity) | increase of TGase activity in retinas of diabetic mice |
| --- | --- | --- |
| CN(C)c1cccc2c(S(=O)(=O)NCCCCCN)cccc12 [MDC, monodansylcadaverine] | suppressed |  |
| Cc1c(C)c2c(c(C)c1O)CCC(C)(C(=O)O)O2 (centres unmarked) [Trolox] | prevented |  |
| NCCS [cysteamine] |  | inhibited |
| NCCSSCCN [cystamine] | suppressed |  |
| NCCc1ccc(O)c(O)c1 [dopamine] |  | inhibited |
